Patent US20230414715A1, “TRAIL COMPOUNDS FOR REDUCING CANCER TREAMENT SIDE EFFECTS” (BROWN UNIVERSITY, priority 2022, published 2023)
“Also recorded” adds a separate entry of the source.

What was measured:
male TRAIL-/- mice = test: Masson's trichrome stain of lung 22 weeks post-radiation (late fibrosis); assay type: in vivo, mouse; conditions: 18 Gy, 10 mg/kg twice a week
Text: In order to examine the late term effects of thoracic radiation, we designed an experiment where the single radiation dose was lowered to 18 Gy in male TRAIL-/- mice. […] At 22 weeks when mice reached criteria for euthanasia, they were sacrificed and lung tissue was harvested. Lung tissue slides were stained with Masson's trichrome and imaged at 10X on an Olympus VS200 slide scanner.

TRAIL-/- mice = test: Radiation pneumonitis after whole-thorax x-ray irradiation, H&E of lung, TRAIL-null mice; assay type: in vivo, mouse; conditions: TRAIL-/- male or female mice, 20 Gy thoracic irradiation, two weeks treatment, FIG. 2A, B
Protocol: Animal studies were carried out at Brown University facilities with approval from Brown University IACUC. C57B1/6 mice (Taconic), mice with bi-allelic loss of TRAIL Death Receptor-(DR5-/-) in a C57B1/6 background, and mice with bi-allelic loss of TRAIL (TRAIL -/-) in a C57B1/6 background were given a single whole-thorax x-ray (Philips RT250) irradiation dose of 20 Gy with shielding of other organs. 8-15-week-old male and female mice of each genotype were used. […] Treatment was continued for two weeks, where TLY012 was administered twice a week and ONC201 was administered once a week. For each genetic background, two mice received a control PO, two mice received TLY012 IP, and two mice received ONC201 PO. Mice were weighed twice a week, and 13 days post-irradiation all mice were euthanized. Organs were harvested from the mice and 600 μL of blood was collected via cardiac puncture for serum cytokine analysis. Organs were preserved in 10% formalin then embedded in paraffin and sectioned at a distance of 5 μm. […] TRAIL-/- female mice were also subjected to a survival study with a single whole-thorax radiation doses of 15 Gy or 18 Gy treated with the same regimen of TLY012 or control (n=2/radiation dose/treatment) (FIG. 3B). […]

TLY012: N-terminal PEGylated recombinant human TRAIL; PEGylated trimeric TRAIL formulation
collagen deposition / fibrosis (Masson's trichrome) (male TRAIL-/- mice): rescue; also recorded: decrease in collagen deposition; also recorded: less fibrosis
rescue from radiation pneumonitis (TRAIL-/- mice): rescued
